From paper PMC8126888 (RSC Medicinal Chemistry, 2020)
Like-named read-outs stand apart in the source and are kept apart here.

Assays:
[1] = test system: primary peritoneal mouse macrophages (PMM); assay: cells; settings: Macrophage, read-out: PMM IC50
in vitro [2] = settings: human, microsomes, pH 7.4, HLM CLint, human liver microsomes
in vitro [3] = settings: mouse, microsomes, pH 7.4, MLM CLint, mouse liver microsomes
physchem = settings: HPLC, Ascentis Express RP Amide column, pH 7.4, eLogD, experimental
in vitro [4] = settings: human
in vitro [5] = settings: human, HFF-1 cells
in vitro [6] = settings: human, HepG2 cells
in vitro [7] = settings: PAMPA
[8] = test system: Leishmania infantum MHOM/MA(BE)/67/ITMAP263 intracellular amastigotes; assay: microbe, parasite or virus in culture; settings: Macrophage, in Mus musculus
[9] = test system: Trypanosoma cruzi, Tulahuen CL2, beta-galactosidase strain; assay: microbe, parasite or virus in culture; settings: MRC5, read-out: T. cruzi Tulahuen C4 (LacZ) IC50
[10] = test system: L. infantum MHOM/MA/67/ITMAP263 axenic Promastigotes; assay: microbe, parasite or virus in culture; settings: Leishmania infantum, read-out: L. infantum MHOM/MA/67/ITMAP263 axenic Promastigotes IC50
in vitro [11] = settings: human, THP-1 cells differentiated with PMA
in vitro [12] = settings: human, HFF-1 cells; remark: listed apart in the source
in vitro [13] = settings: human, HepG2 cells; remark: listed apart in the source
[14] = test system: Leishmania infantum (MHOM/MA/67/ITMAP-263) intracellular amastigotes in THP-1; assay: microbe, parasite or virus in culture; settings: THP-1, read-out: L. infantum MHOM/MA/67/ITMAP263 intracellular amastigotes THP-1 cells IC50
in vitro [15] = settings: PAMPA; remark: listed apart in the source
[16] = read-out: L. infantum MHOM/MA(BE)/67/ITMAP263 intracellular amastigotes IC50, intracellular amastigotes
[17] = read-out: L. Inf. pIC50, L. infantum intracellular amastigotes (converted)

SMILES | IC50 [1] | microsomal CLint at 0.5 μM (in vitro [2]) | microsomal CLint at 0.5 μM (in vitro [3]) | chromatographic logD (physchem) | CC50 at 3 days (in vitro [4]) | CC50 (in vitro [5]) | CC50 (in vitro [6]) | Papp (in vitro [7]) | IC50 ([8]; read-out: L. Inf. pIC50, from L. infantum intracellular amastigote IC50 (converted)) | IC50 [8, 16] | IC50 [9] | IC50 [10] | CC50 at 120 h (in vitro [11]) | CC50 (in vitro [12]) | CC50 (in vitro [13]) | IC50 [8, 17] | IC50 [14] | Papp (in vitro [15])
COc1ccc(Cl)cc1S(=O)(=O)N(Cc1ccccc1)C(Cc1ccccc1)C(N)=O (centres unmarked) [DNDI0003370116] | 32 µM | 752 µL/min/mg | 801 µL/min/mg | 4.2 | 9.62 µM | 37.5 µM | 39 µM | 5.17 ×10⁻⁶ cm/s | 4.68 µM | 4.73 µM | 5.3 µM | 30.4 µM | – | – | – | – | – | –
O=S1(=O)c2ccccc2[C@H](O)[C@@H](Cc2ccccc2)N1Cc1ccccc1 [DNDI0003578378] | > 64 µM | – | – | 4.2 | > 64 µM | – | – | – | – | 8.88 µM | 7.67 µM | – | 39.7 µM | > 64 µM | 63.9 µM | 8.91 µM | 19.5 µM | –
O=S1(=O)c2ccccc2[C@H](O)[C@H](Cc2ccccc2)N1Cc1ccccc1 [DNDI0003578379] | > 64 µM | – | – | 3.9 | 29.7 µM | – | – | – | – | 13.5 µM | 6.7 µM | – | 39.4 µM | 27 µM | > 64 µM | 13.5 µM | 12.1 µM | –
COCCN(Cc1ccccc1)S(=O)(=O)c1c(OC)ccc(Cl)c1[S+](C)[O-] (centres unmarked) [DNDI0003578380] | > 64 µM | 85 µL/min/mg | 286 µL/min/mg | 2.9 | > 64 µM | – | – | – | – | 26.7 µM | > 64 µM | – | > 64 µM | > 64 µM | > 64 µM | 26.9 µM | > 64 µM | 17.6 ×10⁻⁶ cm/s
COCCN(Cc1ccccc1)S(=O)(=O)c1c(OC)ccc(Cl)c1S(C)(=O)=O [DNDI0003578381] | > 64 µM | 51 µL/min/mg | 176 µL/min/mg | 2.6 | > 64 µM | – | – | – | – | 50.8 µM | > 64 µM | – | > 64 µM | > 64 µM | > 64 µM | 51.3 µM | > 64 µM | 14.6 ×10⁻⁶ cm/s
COc1ccc([S+](C)[O-])cc1S(=O)(=O)N(Cc1ccccc1)Cc1ccccc1 (centres unmarked) [DNDI0003578382] | > 64 µM | 125 µL/min/mg | 397 µL/min/mg | 3.6 | 21.3 µM | – | – | – | – | 0.59 µM | 16.9 µM | – | > 64 µM | > 64 µM | > 64 µM | 0.589 µM | 11.5 µM | 14 ×10⁻⁶ cm/s
C[S+]([O-])c1c(Cl)ccc2c1S(=O)(=O)N(Cc1ccccc1)CCO2 (centres unmarked) [DNDI0003578383] | > 64 µM | 33 µL/min/mg | 423 µL/min/mg | 3 | > 64 µM | – | – | – | – | 47.9 µM | 29.3 µM | – | > 64 µM | > 64 µM | > 64 µM | 47.9 µM | > 64 µM | 22 ×10⁻⁶ cm/s
CCCN(Cc1ccc(F)cc1)S(=O)(=O)c1cc([S+](C)[O-])ccc1OC (centres unmarked) [DNDI0003578384] | > 64 µM | 67 µL/min/mg | 437 µL/min/mg | 3.1 | > 64 µM | – | – | – | – | 11 µM | 38.5 µM | – | > 64 µM | > 64 µM | > 64 µM | 11 µM | > 64 µM | 18.6 ×10⁻⁶ cm/s
COc1ccc(S(N)(=O)=O)cc1S(=O)(=O)N(Cc1ccccc1)Cc1ccccc1 [DNDI0003578385] | > 64 µM | 58 µL/min/mg | 366 µL/min/mg | 3.5 | 13.3 µM | – | – | – | – | 0.56 µM | 4.66 µM | – | > 64 µM | 22.2 µM | > 64 µM | 0.562 µM | 5.75 µM | 3.76 ×10⁻⁶ cm/s
